Data taken from paper PMC6617776, “Novel Antihypertensive Peptides Derived from Chicken Foot Proteins” (Molecular Nutrition & Food Research, 2019).
Ends that are not written are not given here.

Tests used:
[1] = test system: spontaneously hypertensive rats (SHR); experiment: Measurement of blood pressure by the tail-cuff method after a single oral dose; type: in vivo, rat; settings: captopril 50 mg kg^−1 bw oral single dose, mean ± SEM, n = 6
Protocol: Male SHR (17–20 weeks old, weighing 350–400 g) were obtained from Charles River Laboratories España S.A. (Barcelona, Spain). The animals were singly housed in animal quarters at 22 °C with a 12 h light–dark period. They were fed with a standard diet based on chow Panlab A04 (Panlab, Barcelona, Spain) and had access to tap water ad libitum.
The SBP and DBP in the animals were measured using the tail‐cuff method 23 with a noninvasive BP system model (Letica, Hospitalet, Barcelona, Spain). The rats were given a single dose of 10 mg kg^−1 body weight (bw) of the synthesized peptides, including VGKPGARAPMY, QVGPLIGRYCG, AVFQHNCQE, LSGPVKF, or AVKILP, dissolved in tap water in a total volume of 1.5 mL. Peptides were administered to the SHR by gastric […] through an acute administration between 9 and 10 in the morning.
Positive control rats received 50 mg kg^−1 bw of captopril, a known ACE‐inhibitor, also dissolved in 1.5 mL of tap water, and the negative control rats received 1.5 mL of tap water. SBP was measured in the rats before peptide administration as well as 2, 4, 6, 8, and 24 h post‐administration. […] The changes in SBP and DBP were expressed as the differences in these variables before and after the administration of the different peptides. […]
Differences between treatments were analyzed by two‐way analysis of variance (two‐way ANOVA). […] Outliers were determined using Grubbs’ test. […]

[2] = target: T1, ACE (angiotensin I‐converting enzyme, EC 3.4.15.1) (Oryctolagus cuniculus, UniProt P12822); experiment: ACEI activity, fluorimetric assay with o-Abz-Gly-p-Phe(NO2)-Pro-OH; type: biochemical; settings: synthetic peptides; concentration of peptide needed to inhibit 50 % of the original ACE activity
T1 sequence (P12822 34-1310): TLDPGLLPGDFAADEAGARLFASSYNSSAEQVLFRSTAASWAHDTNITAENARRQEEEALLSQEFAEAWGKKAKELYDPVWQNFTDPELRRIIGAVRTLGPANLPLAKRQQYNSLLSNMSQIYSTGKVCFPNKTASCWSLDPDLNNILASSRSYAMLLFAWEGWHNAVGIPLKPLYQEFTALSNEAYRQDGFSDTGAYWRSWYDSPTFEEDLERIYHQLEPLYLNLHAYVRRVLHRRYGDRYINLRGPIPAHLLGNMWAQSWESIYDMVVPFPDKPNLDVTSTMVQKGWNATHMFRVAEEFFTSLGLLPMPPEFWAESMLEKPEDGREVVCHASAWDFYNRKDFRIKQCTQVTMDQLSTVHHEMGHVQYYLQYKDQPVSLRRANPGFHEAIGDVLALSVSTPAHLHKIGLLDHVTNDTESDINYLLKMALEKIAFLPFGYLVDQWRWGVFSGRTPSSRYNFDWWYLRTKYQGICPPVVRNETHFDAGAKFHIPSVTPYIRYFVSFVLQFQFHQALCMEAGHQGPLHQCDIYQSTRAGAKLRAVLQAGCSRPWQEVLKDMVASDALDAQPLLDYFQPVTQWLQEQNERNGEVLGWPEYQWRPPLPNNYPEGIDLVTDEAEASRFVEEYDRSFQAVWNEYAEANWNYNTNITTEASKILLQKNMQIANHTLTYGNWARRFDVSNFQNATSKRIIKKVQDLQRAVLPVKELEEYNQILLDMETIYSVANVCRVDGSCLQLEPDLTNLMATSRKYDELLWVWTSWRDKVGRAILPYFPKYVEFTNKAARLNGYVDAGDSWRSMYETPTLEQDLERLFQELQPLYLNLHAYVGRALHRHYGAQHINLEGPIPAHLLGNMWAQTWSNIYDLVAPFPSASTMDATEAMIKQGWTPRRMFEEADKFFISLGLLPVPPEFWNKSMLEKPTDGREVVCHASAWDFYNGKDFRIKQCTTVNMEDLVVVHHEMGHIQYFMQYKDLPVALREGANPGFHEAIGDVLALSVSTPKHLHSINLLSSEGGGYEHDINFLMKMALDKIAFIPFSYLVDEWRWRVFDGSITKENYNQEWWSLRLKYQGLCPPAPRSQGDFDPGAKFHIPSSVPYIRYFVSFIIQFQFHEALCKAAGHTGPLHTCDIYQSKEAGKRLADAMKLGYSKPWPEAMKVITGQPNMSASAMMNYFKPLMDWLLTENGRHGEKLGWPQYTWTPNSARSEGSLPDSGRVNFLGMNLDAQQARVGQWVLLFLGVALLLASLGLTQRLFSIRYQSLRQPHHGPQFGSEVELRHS
Source text: Chicken feet (Gallus gallus domesticus) were provided by a local farm (Granja Gaià, La Riera de Gaià, Spain). Protamex solutions (EC 3.4.21.62 and 3.4.24.28, 1.5 AU g^−1 from Bacillus licheniformis and Bacillus amyloliquefaciens) were kindly provided by Novozymes (Bagsværd, Denmark). ACE (angiotensin I‐converting enzyme, EC 3.4.15.1) was purchased from Sigma‐Aldrich (Madrid, Spain), captopril (PubChem CID: 44093) was purchased from Santa Cruz Biotechnology (Dallas, TX, USA) and o‐aminobenzoylglicil‐p‐nitrofenilalanilprolina (o‐Abz‐Gly‐p‐Phe(NO2)‐Pro‐OH) was provided by Bachem Feinchemikalien (Bubendorf, Switzerland). The synthesized peptides (LSETVV, LSGPVKF, AVKILP, VRWEPAPGPV, VGKPGARAPMY, QVGPLIGRYCG, LGIHPDWQFV, and AVFQHNCQE, purity grade ≥ 90 %) were purchased from Caslo Laboratory ApS (Kongens Lyngby, Denmark). Acetonitrile and trifluoroacetic acid were purchased from Sigma‐Aldrich. All other chemical solvents used were of analytical grade.
ACEI activity was measured according to Mas‐Capdevila et al.21 The fluorescence measurements were performed after 30 min in a multiscan microplate fluorimeter (FLUOstar optima, BMG Labtech, Offeuburg, Germany). The excitation and emission wavelengths were 360 and 400 nm, respectively. The software used to process the data was FLUOstar control (version 1.32 R2, BMG Labtech).
A nonlinear fit was performed on the experimental data to calculate the 50 % inhibitory concentration values (IC50) with the PRISM version 4.02 program for Windows (GraphPad Software, Inc. San Diego, CA, USA). ACEI activity was expressed as a percentage (%) or IC50 (µg µL^−1 solution). The determination of the ACEI activity of the samples was performed at least in duplicate. Data are represented as a mean value ± standard deviation (SD).
Protein content was determined by the bicinchoninic acid method using the standard Pierce BCA Protein Assay (ThermoFisher Scientific). The assay was conducted according to the manufacturer's instructions in a microplate format. A calibration standard curve was prepared with seroalbumin bovine. Determination of the protein content was performed at least in duplicate. The results are expressed as the mean ± SD.

[3] = test system: ACE; design: method as in earlier work; settings: read-out: ACEI activity IC50 of fermented milk-derived peptides; cited from earlier work

| Molecule | IC50 [2] | other results |
| --- | --- | --- |
| C[C@H](CS)C(=O)N1CCC[C@H]1C(=O)O [captopril] | – | maximum decrease in DBP ([1]; 4 h post-administration): −32.97 ± 8.80 mmHg; maximum decrease in SBP ([1]; 6 h post-administration): −33.67 ± 1.94 mmHg |
| AVFQHNCQE [AVFQHNCQE] | 44.8 µM | – |
| AVKILP [AVKILP] | 7.1 µM | – |
| LGIHPDWQFV [LGIHPDWQFV] | > 138 µM | – |
| LHLPLP [known antihypertensive fermented milk-derived peptide] | – | IC50 [3]: 5.5 µM |
| LSGPVKF [LSGPVKF] | 80.9 µM | – |
| QVGPLIGRYCG [QVGPLIGRYCG] | 11 µM | – |
| VRWEPAPGPV [VRWEPAPGPV] | > 150 µM | – |
